Series [1] is described as follows: DMU759 exposure in mice after oral dosing. The format is in vivo. Particulars: 50 mg/kg oral. As for the experimental part: DMU759 (50 mg/kg) was orally administered to BALB/c mice. The dose solution was prepared on the day of dosing, and the vehicle was 0.5% (w/v) hydroxypropyl methylcellulose and 0.4% […]. Blood samples (10 μl) were collected from the tail vein of each animal at defined intervals then placed into 1.2 mL cryovials containing deionized water (90 μl) and stored at −80°C until analysis. Blood levels of DMU759 in mouse blood were determined by UPLC-MS/MS, as previously described ([58]).

The test system of series [2] is T. cruzi epimastigote lysates. Kind of series: Isothermal proteome profiling (iTPP), other hit proteins. It is filed as binding. Particulars: 10× EC50, 48°C. As for the experimental part:
T. cruzi epimastigote lysates were generated as previously described ([29]). Isothermal TPP assays were performed as previously described ([25]). […] Data processing and analyses were performed as previously described ([25]), except proteins were identified via searches against the T. cruzi Dm28C proteome (tritrypdb.org, version 49).

Setting [3] is: 19S proteasome regulatory subunit (C4B63_14g170).
The mark [4] stands for this setting: Conserved hypothetical protein (C4B63_42g251).
Setting [5] is: Mitochondrial processing peptidase, beta subunit (C4B63_3g1101).
The mark [6] stands for this setting: Ribosomal protein S26 (C4B63_6g2300).
Setting [7] is: cysteine peptidase, Clan CA, family C2 (C4B63_22g162).

In the case of `Cc1nc(N)c2c(F)c(F)c(SC3CCCCC3)c(F)c2n1` [DMU759, 7-(Cyclohexylthio)-5,6,8-trifluoro-2-methylquinazolin-4-amine], the “free blood concentration versus EC99” value in series [1] (corrected for plasma protein binding, in words) is reported as “did not exceed the established EC99”. For the same compound, the “time of peak blood concentration” value in series [1] (post dosing) is given as “one”. In addition, the “time total blood concentrations exceeded EC99” value in series [1] (post dosing) is “up to 4 hours”. Further, the “Abundance Log2 fold change Rep 1” value is -2.64 in series [2] (setting [3]); -2.25 in series [2] (setting [4]); -2.04 in series [2] (setting [5]); -2.27 in series [2] (P-type H+-ATPase (C4B63_116g3)); -1.59 in series [2] (setting [6]); -1.58 in series [2] (setting [7]). The “Abundance Log2 fold change Rep 2” value in series [2] (setting [3]) is on record as -3.79; in series [2] (setting [4]), -1.75; in series [2] (setting [5]) it was -2.35; in series [2] (P-type H+-ATPase (C4B63_116g3)), -1.74; in series [2] (setting [6]), -1.80; in series [2] (setting [7]), -2.80.

(Values after article PMC7617978, “Anti-trypanosomal quinazolines targeting lysyl-tRNA synthetases show partial efficacy in a mouse model of acute Chagas disease” (Science translational medicine, 2025).)
